Results taken from BindingDB's records for patent US12128018 (Kdac Therapeutics, 2024).
pIC50: −log10 of the molar value.

Tests used:
Assay in all cases: Inhibition of Histone Deacetylase Enzymatic Activity
Histone deacetylase 4 = Histone deacetylase 4 (Homo sapiens, UniProt P56524)
Description: (§1) Its final concentration in the assay for HDACs 1,2,3,6 is 2 μM.Substrate B was prepared as 2 mM in 100% DMSO. Its final concentration in the assay for HDACs 4,5,7,8,9 is 2 μM.LBH was used as quench inhibitor to stop the reaction at the end point.

Histone deacetylase 5 = Histone deacetylase 5 (Homo sapiens, UniProt Q9UQL6)
Description: as §1

Histone deacetylase 6 = molecular target: T1, Histone deacetylase 6 (Homo sapiens, UniProt Q9UBN7)
T1 sequence (Q9UBN7 whole entry): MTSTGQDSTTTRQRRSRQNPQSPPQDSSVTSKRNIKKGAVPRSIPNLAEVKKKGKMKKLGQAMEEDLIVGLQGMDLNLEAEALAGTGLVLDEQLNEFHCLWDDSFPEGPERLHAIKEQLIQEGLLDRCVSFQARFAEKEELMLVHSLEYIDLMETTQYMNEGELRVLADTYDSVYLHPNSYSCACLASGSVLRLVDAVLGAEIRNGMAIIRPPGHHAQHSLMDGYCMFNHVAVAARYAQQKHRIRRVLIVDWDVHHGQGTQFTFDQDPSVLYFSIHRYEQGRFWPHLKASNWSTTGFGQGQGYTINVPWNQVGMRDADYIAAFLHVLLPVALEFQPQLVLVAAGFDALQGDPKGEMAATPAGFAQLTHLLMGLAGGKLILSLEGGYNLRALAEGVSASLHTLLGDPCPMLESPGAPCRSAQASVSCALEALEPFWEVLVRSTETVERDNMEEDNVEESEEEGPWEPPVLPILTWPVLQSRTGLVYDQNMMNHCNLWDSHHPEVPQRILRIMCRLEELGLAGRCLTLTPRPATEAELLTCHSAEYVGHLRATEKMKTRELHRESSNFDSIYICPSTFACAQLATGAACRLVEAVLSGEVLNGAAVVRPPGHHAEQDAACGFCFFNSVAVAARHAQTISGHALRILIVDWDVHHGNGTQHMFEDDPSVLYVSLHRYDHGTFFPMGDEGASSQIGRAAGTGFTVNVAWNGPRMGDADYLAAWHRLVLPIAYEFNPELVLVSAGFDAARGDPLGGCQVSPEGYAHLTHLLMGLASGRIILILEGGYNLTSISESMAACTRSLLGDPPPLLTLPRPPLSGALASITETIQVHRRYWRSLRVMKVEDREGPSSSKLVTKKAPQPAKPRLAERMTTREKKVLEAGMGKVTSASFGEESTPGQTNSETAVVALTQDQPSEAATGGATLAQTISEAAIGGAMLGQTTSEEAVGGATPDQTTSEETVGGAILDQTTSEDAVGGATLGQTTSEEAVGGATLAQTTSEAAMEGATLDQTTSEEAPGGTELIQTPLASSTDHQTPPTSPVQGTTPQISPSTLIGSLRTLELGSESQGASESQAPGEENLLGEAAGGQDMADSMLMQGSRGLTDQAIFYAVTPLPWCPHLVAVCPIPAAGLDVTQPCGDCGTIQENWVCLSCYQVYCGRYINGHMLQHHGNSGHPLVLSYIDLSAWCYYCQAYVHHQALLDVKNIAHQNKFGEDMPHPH
Description: as §1

Histone deacetylase 7 = molecular target: T2, Histone deacetylase 7 (Homo sapiens, UniProt Q8WUI4)
T2 sequence (Q8WUI4 whole entry): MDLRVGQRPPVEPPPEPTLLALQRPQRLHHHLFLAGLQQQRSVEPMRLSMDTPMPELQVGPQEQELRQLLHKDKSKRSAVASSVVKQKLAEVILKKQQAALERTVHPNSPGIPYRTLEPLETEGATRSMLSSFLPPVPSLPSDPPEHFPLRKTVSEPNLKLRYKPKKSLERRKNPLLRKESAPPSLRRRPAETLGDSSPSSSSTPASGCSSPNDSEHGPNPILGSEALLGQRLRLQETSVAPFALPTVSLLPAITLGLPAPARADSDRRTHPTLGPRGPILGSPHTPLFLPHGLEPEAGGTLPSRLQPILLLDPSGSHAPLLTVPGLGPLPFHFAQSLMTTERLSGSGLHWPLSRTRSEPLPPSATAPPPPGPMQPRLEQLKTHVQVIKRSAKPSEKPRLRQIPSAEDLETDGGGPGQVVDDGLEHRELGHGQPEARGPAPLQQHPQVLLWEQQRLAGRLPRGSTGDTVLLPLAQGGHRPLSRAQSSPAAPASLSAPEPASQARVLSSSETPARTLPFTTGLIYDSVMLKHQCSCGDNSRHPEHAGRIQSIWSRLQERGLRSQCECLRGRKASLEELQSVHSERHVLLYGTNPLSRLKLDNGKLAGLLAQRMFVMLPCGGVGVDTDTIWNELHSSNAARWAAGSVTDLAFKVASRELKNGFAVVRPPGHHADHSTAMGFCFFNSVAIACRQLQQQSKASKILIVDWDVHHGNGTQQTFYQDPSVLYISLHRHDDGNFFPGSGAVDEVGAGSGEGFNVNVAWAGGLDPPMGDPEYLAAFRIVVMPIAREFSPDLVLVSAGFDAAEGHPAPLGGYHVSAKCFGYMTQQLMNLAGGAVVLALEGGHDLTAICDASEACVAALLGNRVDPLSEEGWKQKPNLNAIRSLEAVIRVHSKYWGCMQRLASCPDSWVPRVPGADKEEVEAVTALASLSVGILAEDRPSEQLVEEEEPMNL
Description: as §1

Histone deacetylase 8 = molecular target: T3, Histone deacetylase 8 (Homo sapiens, UniProt Q9BY41)
T3 sequence (Q9BY41 whole entry): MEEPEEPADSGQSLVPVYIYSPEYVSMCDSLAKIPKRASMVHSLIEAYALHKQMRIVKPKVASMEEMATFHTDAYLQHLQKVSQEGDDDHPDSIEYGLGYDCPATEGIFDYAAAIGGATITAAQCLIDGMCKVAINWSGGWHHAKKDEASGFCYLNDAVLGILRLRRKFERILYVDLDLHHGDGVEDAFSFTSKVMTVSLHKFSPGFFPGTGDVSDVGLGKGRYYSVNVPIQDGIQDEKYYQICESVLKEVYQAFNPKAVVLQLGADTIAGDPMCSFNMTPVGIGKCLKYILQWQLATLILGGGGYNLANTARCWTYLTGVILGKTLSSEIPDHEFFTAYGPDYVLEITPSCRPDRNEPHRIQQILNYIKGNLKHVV
Description: as §1

Histone deacetylase 9 = Histone deacetylase 9 (Homo sapiens, UniProt Q9UKV0)
Description: as §1

Measured: pIC50

Sequence of Histone deacetylase 9 (Q9UKV0 whole entry): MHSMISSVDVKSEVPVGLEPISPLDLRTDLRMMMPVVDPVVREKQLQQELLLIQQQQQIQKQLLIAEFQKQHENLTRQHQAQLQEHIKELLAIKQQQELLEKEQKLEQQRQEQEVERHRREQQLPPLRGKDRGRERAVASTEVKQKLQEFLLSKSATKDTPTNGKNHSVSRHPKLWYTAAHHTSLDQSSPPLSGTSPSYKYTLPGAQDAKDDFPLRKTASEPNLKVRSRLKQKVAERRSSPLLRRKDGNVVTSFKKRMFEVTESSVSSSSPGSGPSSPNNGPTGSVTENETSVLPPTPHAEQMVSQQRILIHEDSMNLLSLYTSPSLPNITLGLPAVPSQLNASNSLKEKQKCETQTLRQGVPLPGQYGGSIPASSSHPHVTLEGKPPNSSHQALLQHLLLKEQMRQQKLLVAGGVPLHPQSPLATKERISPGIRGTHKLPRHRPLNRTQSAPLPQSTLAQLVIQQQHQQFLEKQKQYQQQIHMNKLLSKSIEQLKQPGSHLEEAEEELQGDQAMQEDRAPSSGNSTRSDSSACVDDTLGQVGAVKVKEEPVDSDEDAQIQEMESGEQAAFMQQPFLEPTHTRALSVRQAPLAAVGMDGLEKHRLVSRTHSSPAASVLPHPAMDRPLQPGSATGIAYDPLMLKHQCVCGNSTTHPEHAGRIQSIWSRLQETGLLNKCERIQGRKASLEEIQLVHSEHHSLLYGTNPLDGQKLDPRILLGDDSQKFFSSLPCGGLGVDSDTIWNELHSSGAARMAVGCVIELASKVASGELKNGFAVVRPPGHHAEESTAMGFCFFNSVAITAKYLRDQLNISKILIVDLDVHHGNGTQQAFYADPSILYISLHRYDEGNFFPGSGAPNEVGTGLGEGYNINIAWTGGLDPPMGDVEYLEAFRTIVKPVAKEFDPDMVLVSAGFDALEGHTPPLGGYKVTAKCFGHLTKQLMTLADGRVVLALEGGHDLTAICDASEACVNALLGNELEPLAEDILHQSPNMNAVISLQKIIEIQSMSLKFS
Sequence of Histone deacetylase 4 (P56524 whole entry): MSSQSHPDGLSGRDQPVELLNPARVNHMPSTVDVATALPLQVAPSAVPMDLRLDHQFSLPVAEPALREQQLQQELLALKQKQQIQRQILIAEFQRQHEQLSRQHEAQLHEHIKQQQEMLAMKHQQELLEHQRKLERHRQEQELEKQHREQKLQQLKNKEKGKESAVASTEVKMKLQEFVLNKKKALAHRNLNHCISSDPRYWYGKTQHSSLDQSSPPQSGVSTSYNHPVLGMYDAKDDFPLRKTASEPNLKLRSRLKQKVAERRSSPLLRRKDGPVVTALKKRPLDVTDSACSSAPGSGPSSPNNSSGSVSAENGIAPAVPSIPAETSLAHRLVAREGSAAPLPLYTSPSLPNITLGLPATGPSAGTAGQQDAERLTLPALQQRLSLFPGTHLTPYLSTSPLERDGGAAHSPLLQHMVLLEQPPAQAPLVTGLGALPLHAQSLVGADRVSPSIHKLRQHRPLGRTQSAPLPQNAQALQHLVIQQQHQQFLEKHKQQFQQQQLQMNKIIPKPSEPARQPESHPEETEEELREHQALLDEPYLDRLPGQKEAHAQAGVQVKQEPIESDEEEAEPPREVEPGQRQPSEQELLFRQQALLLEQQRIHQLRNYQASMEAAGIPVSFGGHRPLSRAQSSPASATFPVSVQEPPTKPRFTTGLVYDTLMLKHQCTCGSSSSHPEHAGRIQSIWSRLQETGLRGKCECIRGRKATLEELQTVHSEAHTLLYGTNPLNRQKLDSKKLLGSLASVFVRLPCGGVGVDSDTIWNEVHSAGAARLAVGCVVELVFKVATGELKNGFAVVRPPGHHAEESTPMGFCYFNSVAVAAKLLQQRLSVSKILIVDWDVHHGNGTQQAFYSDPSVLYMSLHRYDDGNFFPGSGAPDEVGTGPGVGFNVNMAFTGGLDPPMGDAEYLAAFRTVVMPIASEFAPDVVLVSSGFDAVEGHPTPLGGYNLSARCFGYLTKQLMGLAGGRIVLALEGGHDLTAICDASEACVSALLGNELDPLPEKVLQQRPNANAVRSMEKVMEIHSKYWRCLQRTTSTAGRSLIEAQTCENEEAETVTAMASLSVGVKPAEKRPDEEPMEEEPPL
Sequence of Histone deacetylase 5 (Q9UQL6 whole entry): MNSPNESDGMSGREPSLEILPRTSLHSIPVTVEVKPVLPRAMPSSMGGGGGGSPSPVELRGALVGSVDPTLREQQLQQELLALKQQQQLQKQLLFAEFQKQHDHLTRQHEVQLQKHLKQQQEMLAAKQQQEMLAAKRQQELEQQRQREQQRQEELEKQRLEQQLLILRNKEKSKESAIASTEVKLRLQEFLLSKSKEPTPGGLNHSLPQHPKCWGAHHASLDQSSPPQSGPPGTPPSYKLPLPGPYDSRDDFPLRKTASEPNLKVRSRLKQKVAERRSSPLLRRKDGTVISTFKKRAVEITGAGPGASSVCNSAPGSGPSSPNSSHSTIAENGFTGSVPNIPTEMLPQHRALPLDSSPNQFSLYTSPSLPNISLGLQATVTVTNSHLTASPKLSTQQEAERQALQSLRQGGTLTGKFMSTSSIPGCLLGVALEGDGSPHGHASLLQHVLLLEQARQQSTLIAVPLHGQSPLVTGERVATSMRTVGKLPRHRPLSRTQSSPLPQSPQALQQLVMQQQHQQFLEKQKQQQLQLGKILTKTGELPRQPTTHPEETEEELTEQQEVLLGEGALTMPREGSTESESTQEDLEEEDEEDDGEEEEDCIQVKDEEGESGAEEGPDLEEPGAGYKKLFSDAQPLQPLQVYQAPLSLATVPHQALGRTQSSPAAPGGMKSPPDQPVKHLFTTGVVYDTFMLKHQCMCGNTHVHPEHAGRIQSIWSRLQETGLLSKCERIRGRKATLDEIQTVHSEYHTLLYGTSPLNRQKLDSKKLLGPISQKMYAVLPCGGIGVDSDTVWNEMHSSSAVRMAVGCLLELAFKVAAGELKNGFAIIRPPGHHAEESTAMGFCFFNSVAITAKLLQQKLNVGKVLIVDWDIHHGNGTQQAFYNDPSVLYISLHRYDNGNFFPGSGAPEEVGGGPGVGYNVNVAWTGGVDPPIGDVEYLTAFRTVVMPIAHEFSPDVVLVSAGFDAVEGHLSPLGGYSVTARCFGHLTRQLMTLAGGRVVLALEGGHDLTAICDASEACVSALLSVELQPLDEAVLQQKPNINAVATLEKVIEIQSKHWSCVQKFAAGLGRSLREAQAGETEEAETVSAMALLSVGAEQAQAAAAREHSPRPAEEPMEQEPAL

CC(=O)Nc1ccc(C(=O)Nc2ccc(F)cc2N)cc1 [US12128018, Compound I-1]
< 4.52: all assays above
